According to US20100298447A1, “COMPOSITE PRODUCT OF LOW-SOLUBILITY DRUG AND SURFACTANT, AND PROCESS FOR PRODUCTION THEREOF” (priority 2007, published 2010):

Assay: Solubility of aciclovir in water at room temperature
Type: physicochemical
Conditions: room temperature (25° C.)
Method: Thus, an S/O solution could not be obtained. Thus, an aciclovir dispersion was prepared in the form of an S/O solution.

SMILES: Nc1nc2c(ncn2COCCO)c(=O)[nH]1 [aciclovir]
- solubility in water: very poor
